Values of other authors in patent US20190167598A1, “A NOVEL TREATMENT REGIMEN INVOLVING SAPROPTERIN DIHYDROCHLORIDE” (DIPHARMA S.A., priority 2016, published 2019).

Legend:
[1] = in vivo
[2] = neutral or basic conditions

sapropterin elimination half-life time [1]: about 4 h
oxidation into dihydrobiopterin [2]: readily oxidized
SMILES: C[C@H](O)[C@H](O)[C@H]1CNc2[nH]c(N)nc(=O)c2N1.Cl.Cl [sapropterin, (6R)-2-amino-6-[(1R,2S)-1,2-dihydroxypropyl]-5,6,7,8-tetrahydropteridin-4(1H)-one dihydrochloride]
